Values after ≈ are worked out from the molar mass of the structure shown. Active and inactive are the calls of the source. The calls are words filed in the database; no cut-off is given here.
Experiments:
MCF7 = test: Antiproliferative activity against human MCF7 cells incubated for 72 hrs by Cell counting kit 8 method; format: functional, cell-based; conditions: MCF7, 72 h
[1] = target: Fibroblast growth factor receptor 2 (Homo sapiens, UniProt P21802); test: Inhibition of FGFR2 (unknown origin) incubated for 10 mins followed by substrate addition measured after 60 mins by ADP-Glo luminescence assay
Sequence of Fibroblast growth factor receptor 2 (P21802 whole entry): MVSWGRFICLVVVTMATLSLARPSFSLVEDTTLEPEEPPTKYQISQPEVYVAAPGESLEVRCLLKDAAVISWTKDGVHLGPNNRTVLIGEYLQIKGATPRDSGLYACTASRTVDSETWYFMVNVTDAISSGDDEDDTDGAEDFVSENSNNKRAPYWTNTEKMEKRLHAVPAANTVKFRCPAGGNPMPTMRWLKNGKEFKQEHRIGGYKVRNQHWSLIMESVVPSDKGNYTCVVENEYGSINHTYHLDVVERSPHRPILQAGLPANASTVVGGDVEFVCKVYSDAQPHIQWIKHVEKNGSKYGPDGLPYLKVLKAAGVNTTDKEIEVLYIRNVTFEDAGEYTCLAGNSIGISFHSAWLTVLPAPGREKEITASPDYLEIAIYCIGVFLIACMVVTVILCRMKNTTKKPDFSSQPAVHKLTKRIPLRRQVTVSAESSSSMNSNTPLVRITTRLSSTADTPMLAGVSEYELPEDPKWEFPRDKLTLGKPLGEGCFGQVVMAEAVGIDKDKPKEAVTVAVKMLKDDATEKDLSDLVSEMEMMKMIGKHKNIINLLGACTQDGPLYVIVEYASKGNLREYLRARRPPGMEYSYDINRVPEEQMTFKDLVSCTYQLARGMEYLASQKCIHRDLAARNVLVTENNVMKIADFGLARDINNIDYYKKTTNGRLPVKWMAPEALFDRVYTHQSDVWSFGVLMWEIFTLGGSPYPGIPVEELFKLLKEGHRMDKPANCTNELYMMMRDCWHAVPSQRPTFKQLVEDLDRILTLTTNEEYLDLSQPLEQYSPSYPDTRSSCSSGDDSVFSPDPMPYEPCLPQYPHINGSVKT

Huh-7 [2] = test: Antitumor activity against human Huh-7 cells xenografted in BALB/c nude mouse assessed as reduction in tumor growth once daily at 60 mg/kg, po for 24 days; format: functional, organism-based; conditions: time 24.0 day
[3] = Half life in Sprague-Dawley rat measured at 60 mg/kg, po for 0.083 to 24 hrs by LC-MS/MS analysis; format: ADME, organism-based; conditions: in vivo, time 0.083-24 hrs
NCI-H1581 [4] = test: Antitumor activity against human NCI-H1581 cells xenografted in BALB/c nude mouse assessed as tumor growth inhibition once daily at 60 mg/kg, po for 24 days relative to control; format: functional; parameters: scale not given: the % may be the effect or the level left; conditions: time 24 day
[5] = Cmax in Sprague-Dawley rat measured at 60 mg/kg, po for 0.083 to 24 hrs by LC-MS/MS analysis; format: ADME, organism-based; parameters: dose 60 mg/kg, time 0.083-24 hrs, route po; conditions: in vivo
[6] = Cmax in Sprague-Dawley rat measured at 10 mg/kg, po for 0.083 to 24 hrs by LC-MS/MS analysis; format: ADME, organism-based; parameters: time 0.083-24 hrs, dose 10 mg/kg, route po; conditions: in vivo
HT-29 = test: Antiproliferative activity against human HT-29 cells incubated for 72 hrs by Cell counting kit 8 method; format: functional, cell-based; conditions: HT-29, 72 h
[7] = target: Fibroblast growth factor receptor 4 (Homo sapiens, UniProt P22455); test: Inhibition of FGFR4 (unknown origin) incubated for 10 mins followed by substrate addition measured after 60 mins by ADP-Glo luminescence assay
Sequence of Fibroblast growth factor receptor 4 (P22455 whole entry): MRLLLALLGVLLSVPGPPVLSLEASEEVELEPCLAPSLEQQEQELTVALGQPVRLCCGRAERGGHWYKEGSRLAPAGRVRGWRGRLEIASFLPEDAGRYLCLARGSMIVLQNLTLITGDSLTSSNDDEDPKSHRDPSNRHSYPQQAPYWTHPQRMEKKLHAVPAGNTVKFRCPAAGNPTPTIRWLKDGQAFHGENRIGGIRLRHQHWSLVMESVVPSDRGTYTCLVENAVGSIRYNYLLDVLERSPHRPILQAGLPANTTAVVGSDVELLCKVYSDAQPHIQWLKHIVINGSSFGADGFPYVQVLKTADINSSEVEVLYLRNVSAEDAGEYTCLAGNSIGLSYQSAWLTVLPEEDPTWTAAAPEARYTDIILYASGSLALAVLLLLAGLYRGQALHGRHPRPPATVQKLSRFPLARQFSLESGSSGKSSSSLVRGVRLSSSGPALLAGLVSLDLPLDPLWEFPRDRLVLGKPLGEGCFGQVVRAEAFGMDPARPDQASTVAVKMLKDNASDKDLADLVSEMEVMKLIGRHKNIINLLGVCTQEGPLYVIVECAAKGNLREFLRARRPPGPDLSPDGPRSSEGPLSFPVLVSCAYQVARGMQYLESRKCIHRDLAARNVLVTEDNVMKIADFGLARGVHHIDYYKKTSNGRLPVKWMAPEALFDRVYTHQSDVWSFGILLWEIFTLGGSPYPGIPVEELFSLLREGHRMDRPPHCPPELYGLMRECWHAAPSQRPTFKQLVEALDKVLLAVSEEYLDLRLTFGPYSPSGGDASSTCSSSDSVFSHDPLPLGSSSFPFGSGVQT

[8] = MRT (0 to t) in Sprague-Dawley rat measured at 2 mg/kg, iv for 0.083 to 24 hrs by LC-MS/MS analysis; format: ADME, organism-based; conditions: in vivo, time 0.083-24 hrs
[9] = Cmax in Sprague-Dawley rat measured at 30 mg/kg, po for 0.083 to 24 hrs by LC-MS/MS analysis; format: ADME, organism-based; parameters: dose 30 mg/kg, time upper 24 hrs, time lower 0.083 hrs, route po; conditions: in vivo
[10] = target: Fibroblast growth factor receptor 3 (Homo sapiens, UniProt P22607); test: Inhibition of FGFR3 (unknown origin) incubated for 10 mins followed by substrate addition measured after 60 mins by ADP-Glo luminescence assay
Sequence of Fibroblast growth factor receptor 3 (P22607 whole entry): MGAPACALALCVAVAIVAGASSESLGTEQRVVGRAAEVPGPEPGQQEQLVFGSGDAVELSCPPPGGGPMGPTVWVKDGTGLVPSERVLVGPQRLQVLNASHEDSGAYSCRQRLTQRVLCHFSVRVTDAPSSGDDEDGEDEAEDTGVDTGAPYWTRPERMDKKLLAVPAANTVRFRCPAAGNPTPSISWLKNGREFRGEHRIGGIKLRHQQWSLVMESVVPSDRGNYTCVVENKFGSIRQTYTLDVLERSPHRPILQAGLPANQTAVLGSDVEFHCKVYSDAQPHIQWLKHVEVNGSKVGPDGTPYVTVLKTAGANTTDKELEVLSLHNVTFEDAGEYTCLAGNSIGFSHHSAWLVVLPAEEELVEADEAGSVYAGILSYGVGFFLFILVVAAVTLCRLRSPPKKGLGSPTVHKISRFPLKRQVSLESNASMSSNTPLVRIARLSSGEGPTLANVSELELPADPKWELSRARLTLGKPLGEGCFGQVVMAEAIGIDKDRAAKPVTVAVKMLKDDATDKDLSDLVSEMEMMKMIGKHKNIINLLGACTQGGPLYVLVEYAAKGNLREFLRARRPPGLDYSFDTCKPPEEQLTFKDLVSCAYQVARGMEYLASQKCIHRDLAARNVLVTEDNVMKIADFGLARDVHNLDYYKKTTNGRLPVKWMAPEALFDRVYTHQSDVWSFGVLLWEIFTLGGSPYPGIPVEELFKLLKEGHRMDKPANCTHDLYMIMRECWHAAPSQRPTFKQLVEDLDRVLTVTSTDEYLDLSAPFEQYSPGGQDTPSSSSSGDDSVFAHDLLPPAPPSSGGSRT

[11] = Tmax in Sprague-Dawley rat measured at 60 mg/kg, po for 0.083 to 24 hrs by LC-MS/MS analysis; format: ADME, organism-based; conditions: in vivo, time 0.083-24 hrs
NCI-H1581 [12] = test: Antiproliferative activity against human NCI-H1581 cells incubated for 72 hrs by Cell counting kit 8 method; format: functional, cell-based; conditions: NCI-H1581, 72 h
[13] = Microsomal stability in human liver microsomes assessed as intrinsic clearance preincubated for 10 mins followed by NADPH addition measured upto 60 mins by LC-MS/MS analysis; format: ADME, Microsome; conditions: time < 70 min, read-out: CLH
Huh-7 [14] = test: Antitumor activity against human Huh-7 cells xenografted in BALB/c nude mouse assessed as tumor growth inhibition once daily at 60 mg/kg, po for 24 days relative to control; format: functional; parameters: scale not given: the % may be the effect or the level left; conditions: time 24 day
[15] = Permeability of the compound at 10 uM preincubated in acceptor compartment for 16 hrs followed by 16 hrs incubation in donor compartment by PAMPA based LC-MS/MS analysis; format: ADME; conditions: time 32 hrs, read-out: permeability
[16] = Oral bioavailability in Sprague-Dawley rat measured at 10 mg/kg for 0.083 to 24 hrs by LC-MS/MS analysis; format: ADME, organism-based; conditions: in vivo, time 0.083-24 hrs
[17] = Cmax in Sprague-Dawley rat measured at 2 mg/kg, iv for 0.083 to 24 hrs by LC-MS/MS analysis; format: ADME, organism-based; parameters: time upper 24 hrs, time lower 0.083 hrs, dose 2 mg/kg, route iv; conditions: in vivo
Huh-7 [18] = test: Antitumor activity against human Huh-7 cells xenografted in BALB/c nude mouse assessed as reduction in tumor growth once daily administered orally for 24 days; format: functional; conditions: dose 15-60 mg/kg, route po, time 24.0 day
[19] = AUC(0 to infinity) in Sprague-Dawley rat measured at 60 mg/kg, po for 0.083 to 24 hrs by LC-MS/MS analysis; format: ADME, organism-based; parameters: time lower 0.083 hrs, dose 60 mg/kg, time upper 24 hrs, route po; conditions: in vivo
[20] = AUC(0 to t) in Sprague-Dawley rat measured at 100 mg/kg, po for 0.083 to 24 hrs by LC-MS/MS analysis; format: ADME, organism-based; parameters: time upper 24 hrs, dose 100 mg/kg, time lower 0.083 hrs, route po; conditions: in vivo
[21] = Solubility of the compound in PBS buffer of pH7.4 at 10 mM measured after 2 hrs by LC-MS/MS analysis; format: physicochemical; conditions: pH 7.4
[22] = Half life in Sprague-Dawley rat measured at 2 mg/kg, iv for 0.083 to 24 hrs by LC-MS/MS analysis; format: ADME, organism-based; conditions: in vivo, time 0.083-24 hrs
[23] = MRT (0 to infinity) in Sprague-Dawley rat measured at 2 mg/kg, iv for 0.083 to 24 hrs by LC-MS/MS analysis; format: ADME, organism-based; conditions: in vivo, time 0.083-24 hrs
[24] = AUC (0 to t) in Sprague-Dawley rat measured at 10 mg/kg, po for 0.083 to 24 hrs by LC-MS/MS analysis; format: ADME, organism-based; parameters: dose 10 mg/kg, time upper 24 hrs, time lower 0.083 hrs, route po; conditions: in vivo
[25] = AUC(0 to t) in Sprague-Dawley rat measured at 30 mg/kg, po for 0.083 to 24 hrs by LC-MS/MS analysis; format: ADME, organism-based; parameters: time 0.083-24 hrs, dose 30 mg/kg, route po; conditions: in vivo
[26] = Microsomal stability in human liver microsomes assessed as half life preincubated for 10 mins followed by NADPH addition measured upto 60 mins by LC-MS/MS analysis; format: ADME, Microsome; conditions: time < 70 min
Huh-7 [27] = test: Antitumor activity against human Huh-7 cells xenografted in BALB/c nude mouse assessed as tumor growth inhibition once daily at 30 mg/kg, po for 24 days relative to control; format: functional; parameters: scale not given: the % may be the effect or the level left; conditions: time 24 day
[28] = Ionization constant, pKa of the compound in PBS buffer at pH 1.42 to 12.33 by electrochemical method; format: physicochemical
[29] = AUC (0 to t) in Sprague-Dawley rat measured at 2 mg/kg, iv for 0.083 to 24 hrs by LC-MS/MS analysis; format: ADME, organism-based; parameters: dose 2 mg/kg, time upper 24 hrs, time lower 0.083 hrs, route iv; conditions: in vivo
[30] = AUC(0 to infinity) in Sprague-Dawley rat measured at 100 mg/kg, po for 0.083 to 24 hrs by LC-MS/MS analysis; format: ADME, organism-based; parameters: dose 100 mg/kg, time 0.083-24 hrs, route po; conditions: in vivo
[31] = Toxicity in […] nude mouse xenografted with NCI-H1581 cells assessed as change in body weight once daily at 15 to 60 mg/kg, po for 24 days relative to control; format: organism-based; conditions: in vivo, 576 h, dose 15-60 mg/kg, time 24 day
[32] = C0 in Sprague-Dawley rat measured at 2 mg/kg, iv for 0.083 to 24 hrs by LC-MS/MS analysis; format: ADME, organism-based; conditions: in vivo, time 0.083-24 hrs
[33] = target: Fibroblast growth factor receptor 1 (Homo sapiens, UniProt P11362); test: Inhibition of FGFR1 (unknown origin) incubated for 10 mins followed by substrate addition measured after 60 mins by ADP-Glo luminescence assay
Sequence of Fibroblast growth factor receptor 1 (P11362 whole entry): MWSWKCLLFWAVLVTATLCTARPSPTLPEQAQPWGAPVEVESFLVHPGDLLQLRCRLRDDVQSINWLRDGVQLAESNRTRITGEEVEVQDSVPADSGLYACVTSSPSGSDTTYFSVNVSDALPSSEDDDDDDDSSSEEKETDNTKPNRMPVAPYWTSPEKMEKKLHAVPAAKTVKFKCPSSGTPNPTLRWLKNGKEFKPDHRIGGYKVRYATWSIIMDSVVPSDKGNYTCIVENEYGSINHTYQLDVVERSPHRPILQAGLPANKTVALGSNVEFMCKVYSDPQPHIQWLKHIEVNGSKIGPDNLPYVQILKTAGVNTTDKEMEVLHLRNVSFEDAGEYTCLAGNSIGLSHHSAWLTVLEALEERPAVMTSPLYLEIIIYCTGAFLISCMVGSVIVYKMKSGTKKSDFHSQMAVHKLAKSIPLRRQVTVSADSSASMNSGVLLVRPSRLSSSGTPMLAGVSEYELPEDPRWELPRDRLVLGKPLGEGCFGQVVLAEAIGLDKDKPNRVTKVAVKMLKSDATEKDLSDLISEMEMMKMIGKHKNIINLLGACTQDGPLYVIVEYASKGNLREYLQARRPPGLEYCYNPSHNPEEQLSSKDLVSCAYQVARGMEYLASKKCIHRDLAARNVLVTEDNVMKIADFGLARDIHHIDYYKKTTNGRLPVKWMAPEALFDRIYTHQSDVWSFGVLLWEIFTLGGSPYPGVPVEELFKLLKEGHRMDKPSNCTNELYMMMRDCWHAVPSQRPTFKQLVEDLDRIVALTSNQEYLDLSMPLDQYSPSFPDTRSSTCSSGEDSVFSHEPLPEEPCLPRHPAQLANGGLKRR

[34] = Antiproliferative activity against human RBE cells incubated for 72 hrs by Cell counting kit 8 method; format: functional, cell-based
[35] = MRT (0 to infinity) in Sprague-Dawley rat measured at 10 mg/kg, po for 0.083 to 24 hrs by LC-MS/MS analysis; format: ADME, organism-based; conditions: in vivo, time 0.083-24 hrs
[36] = AUC(0 to infinity) in Sprague-Dawley rat measured at 30 mg/kg, po for 0.083 to 24 hrs by LC-MS/MS analysis; format: ADME, organism-based; parameters: time upper 24 hrs, dose 30 mg/kg, time lower 0.083 hrs, route po; conditions: in vivo

IC50 (MCF7): > 10000 nM
IC50 [1]: 3.1 nM
half-life [3]: 145 min
Cmax [5]: 7990 ng/mL
Cmax [6]: 1800 ng/mL
IC50 (HT-29): 7230 nM
IC50 [7]: 1.8 nM
MRT last [8]: 10.8 min
Cmax [9]: 6070 ng/mL
IC50 [10]: 16 nM
Tmax [11]: 30 min
IC50 (NCI-H1581 [12]): < 0.31 nM
microsomal CLint [13]: 46.7 µL/min/mg
Papp at 16 h, 10 µM [15]: 12.3 ×10⁻⁶ cm/s
bioavailability [16]: 60.7%
Cmax [17]: 1840 ng/mL
AUC(0-inf) [19]: 14900 ng·h/mL
AUC(0-t) [20]: 28100 ng·h/mL
solubility at 2 h, 10000 µM [21]: 1.73 µM (≈ 0.901 µg/mL)
half-life [22]: 15.6 min
MRT [23]: 11.4 min
AUC(0-t) [24]: 1730 ng·h/mL
AUC(0-t) [25]: 7920 ng·h/mL
half-life [26]: 61.9 min
pKa [28]: 5.77
AUC(0-t) [29]: 570 ng·h/mL
AUC(0-inf) [30]: 28200 ng·h/mL
C0 [32]: 3300 ng/mL
IC50 [33]: 9.9 nM
MRT [35]: 190 min
AUC(0-inf) [36]: 7950 ng·h/mL
SMILES: C=CC(=O)N1CCC(c2cc3c(Oc4ccc(NC(=O)NC5CC5)c(Cl)c4)ccnc3cc2OC)CC1
Activity (Huh-7 [2]): Active
Activity (NCI-H1581 [4]): 67%
Activity (Huh-7 [14]): 88.2%
Activity (Huh-7 [18]): Dose-Dependent Effect
Activity (Huh-7 [27]): 89.6%
Activity [31]: Active
IC50 [34]: 357 nM
